Six compounds from BindingDB's records for patent US20250145589 (Sichuan Huiyu Pharmaceutical, 2025) can be followed below.

The term IC50 denotes the point on the concentration scale where inhibition reaches its midpoint. Low readings indicate higher potency, high ones lower potency.

The target of assay [1] is Phosphatidylinositol 4,5-bisphosphate 3-kinase catalytic subunit alpha isoform (Homo sapiens, UniProt P42336). As to the kind of experiment: Inhibition of PI3Kalpha Efficacy assay. As to the method:
(§1) The ADP-Glo™ kinase assay was used to assess the inhibition of PI3Kα with our compounds. The utilized proteins and assay reagents were obtained from the ADP-Glo™ Kinase Assay Kit (Promega). Initially, a 2 mM stock solution of the test compound (dissolved in DMSO) was serially diluted in five-fold concentrations using DMSO to obtain eight working solutions 1 (200′). Subsequently, each of the eight working solutions 1 was further diluted in a 20-fold gradient by adding 5 μL into 95 μL of ddH2O, resulting in eight working solutions 2 (10×). In a 384-well white flat-bottom plate, 2 μL of 2.5×PI3Kα kinase solution and 1 μL of working solution 2 (10×) were added to each well and mixed, followed by a 15-minute incubation at room temperature (RT). Subsequently, 2 μL of 2.5×PI and ATP solution mixture were added to each well, mixed, and incubated at RT for 60 minutes. Then, 5 μL of ADP-Glo (containing 10 mM MgCl2) reagent was added to each well, mixed, and incubated at RT for 40 minutes.Finally, 10 μL of the Kinase Detection Reagent was added to each well, mixed, and incubated at RT for 40 minutes. Luminescence values were recorded using a multi-mode microplate reader with luminescence channel settings, and the inhibitory rate was calculated using the following formula:%Inhibitionrate=[(Negative-testcompound)/(Negative-Blank)]*100Data were analyzed using GraphPad Prism with log(inhibitor) vs. response—Variable Slope(four parameters) fitting calculations for IC5 values.

Assay [2] deals with T1, Phosphatidylinositol 4,5-bisphosphate 3-kinase catalytic subunit delta isoform (Homo sapiens, UniProt O00329).
T1 sequence (O00329 whole entry): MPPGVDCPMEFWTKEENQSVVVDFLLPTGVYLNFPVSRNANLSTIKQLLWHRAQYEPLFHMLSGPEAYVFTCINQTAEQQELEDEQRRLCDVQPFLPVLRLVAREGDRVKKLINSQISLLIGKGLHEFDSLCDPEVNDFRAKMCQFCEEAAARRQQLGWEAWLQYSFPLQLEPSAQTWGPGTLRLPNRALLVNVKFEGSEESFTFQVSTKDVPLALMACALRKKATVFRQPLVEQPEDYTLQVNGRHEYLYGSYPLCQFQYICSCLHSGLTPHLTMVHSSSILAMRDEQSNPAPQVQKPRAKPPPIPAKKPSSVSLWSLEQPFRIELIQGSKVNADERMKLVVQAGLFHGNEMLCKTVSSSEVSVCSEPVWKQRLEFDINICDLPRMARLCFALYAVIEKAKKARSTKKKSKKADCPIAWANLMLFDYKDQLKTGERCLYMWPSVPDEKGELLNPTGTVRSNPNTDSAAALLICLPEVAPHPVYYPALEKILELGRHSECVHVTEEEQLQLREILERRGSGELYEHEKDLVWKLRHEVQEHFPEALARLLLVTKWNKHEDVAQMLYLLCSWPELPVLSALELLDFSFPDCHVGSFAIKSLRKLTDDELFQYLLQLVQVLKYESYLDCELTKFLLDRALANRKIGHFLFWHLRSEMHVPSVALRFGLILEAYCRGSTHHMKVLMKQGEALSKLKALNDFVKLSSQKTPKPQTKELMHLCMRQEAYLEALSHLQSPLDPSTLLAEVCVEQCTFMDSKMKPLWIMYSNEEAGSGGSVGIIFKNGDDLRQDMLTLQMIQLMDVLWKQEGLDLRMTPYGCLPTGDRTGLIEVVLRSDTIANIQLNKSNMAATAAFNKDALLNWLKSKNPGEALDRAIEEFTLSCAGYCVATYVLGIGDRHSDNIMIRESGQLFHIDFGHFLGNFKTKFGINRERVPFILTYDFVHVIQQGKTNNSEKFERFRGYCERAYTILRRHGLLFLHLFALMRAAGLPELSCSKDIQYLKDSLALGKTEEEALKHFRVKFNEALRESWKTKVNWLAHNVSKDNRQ
In words: Inhibition of PI3Kdelta Efficacy Assay. As to the method:
as §1, with “PI3Kδ” for “PI3Kα”, “(200×)” for “(200′).”, “2.5×PI3Kδ” for “2.5×PI3Kα”, “minutes. Finally,” for “minutes.Finally,”, “IC50” for “IC5”

Assay [3] addresses Son of sevenless homolog 1/GTPase KRas [G12C] (Homo sapiens, UniProt P01116, G12C). In words: HTRF KRASG12C/SOS1 Binding Assay. As to the method:
The HTRF KRASG12C/SOS1 Binding Assay was used to measure the interaction between KRASG12C and SOS1 proteins, and evaluate the enzymatic activity of compounds against KRASG12C. The utilized proteins and assay reagents were obtained from the KRASG12C-SOS1 binding assay kits (Cisbio). Initially, a 2 mM stock solution of the test compound (dissolved in DMSO) was serially diluted in five-fold concentrations using DMSO to obtain eight working solutions 1 (200×). Subsequently, each of the eight working solutions 1 was further diluted in a 20-fold gradient by adding 5 μL into 95 μL of Diluent buffer, mixed completely with vortex mixer, resulting in eight working solutions 2 (10×). In a 384-well white flat-bottom plate, 4 μL of Tag2-KRASG12C solution, 2 μL of working solution 2 (10×) and 4 μL of Tag1-SOS1 solution were sequentially added to each well and mixed, followed by a 15-minute incubation at room temperature (RT). Subsequently, 5 μL of Anti-tag 1-Tb3+ stock solution and 5 μL of Anti-tag2-XL665 were added to each well, mixed, and incubated at 4° C. for 3 hours. […] The inhibition rate was calculated using the following formula:%Inhibitionrate= [(Rationegative-Ratiocompound)/(Rationegative-RatioBlank)]×100Data were analyzed using GraphPad Prism with log (inhibitor) vs. response-Variable Slope (four parameters) fitting calculations for IC50 values.
Background: In TR-FRET formats the signal depends on donor and acceptor labels being close together.

Molecules are shown by their SMILES.

Sequence of Son of sevenless homolog 1/GTPase KRas [G12C] (P01116 whole entry G12C): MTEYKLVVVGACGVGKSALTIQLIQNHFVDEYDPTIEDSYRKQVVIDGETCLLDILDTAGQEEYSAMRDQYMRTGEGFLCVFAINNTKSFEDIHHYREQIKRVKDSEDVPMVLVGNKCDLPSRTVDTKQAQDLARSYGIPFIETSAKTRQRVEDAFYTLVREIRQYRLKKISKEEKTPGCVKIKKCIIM
Sequence of Son of sevenless homolog 1/GTPase KRas [G12C] (Q07889 whole entry, further chain): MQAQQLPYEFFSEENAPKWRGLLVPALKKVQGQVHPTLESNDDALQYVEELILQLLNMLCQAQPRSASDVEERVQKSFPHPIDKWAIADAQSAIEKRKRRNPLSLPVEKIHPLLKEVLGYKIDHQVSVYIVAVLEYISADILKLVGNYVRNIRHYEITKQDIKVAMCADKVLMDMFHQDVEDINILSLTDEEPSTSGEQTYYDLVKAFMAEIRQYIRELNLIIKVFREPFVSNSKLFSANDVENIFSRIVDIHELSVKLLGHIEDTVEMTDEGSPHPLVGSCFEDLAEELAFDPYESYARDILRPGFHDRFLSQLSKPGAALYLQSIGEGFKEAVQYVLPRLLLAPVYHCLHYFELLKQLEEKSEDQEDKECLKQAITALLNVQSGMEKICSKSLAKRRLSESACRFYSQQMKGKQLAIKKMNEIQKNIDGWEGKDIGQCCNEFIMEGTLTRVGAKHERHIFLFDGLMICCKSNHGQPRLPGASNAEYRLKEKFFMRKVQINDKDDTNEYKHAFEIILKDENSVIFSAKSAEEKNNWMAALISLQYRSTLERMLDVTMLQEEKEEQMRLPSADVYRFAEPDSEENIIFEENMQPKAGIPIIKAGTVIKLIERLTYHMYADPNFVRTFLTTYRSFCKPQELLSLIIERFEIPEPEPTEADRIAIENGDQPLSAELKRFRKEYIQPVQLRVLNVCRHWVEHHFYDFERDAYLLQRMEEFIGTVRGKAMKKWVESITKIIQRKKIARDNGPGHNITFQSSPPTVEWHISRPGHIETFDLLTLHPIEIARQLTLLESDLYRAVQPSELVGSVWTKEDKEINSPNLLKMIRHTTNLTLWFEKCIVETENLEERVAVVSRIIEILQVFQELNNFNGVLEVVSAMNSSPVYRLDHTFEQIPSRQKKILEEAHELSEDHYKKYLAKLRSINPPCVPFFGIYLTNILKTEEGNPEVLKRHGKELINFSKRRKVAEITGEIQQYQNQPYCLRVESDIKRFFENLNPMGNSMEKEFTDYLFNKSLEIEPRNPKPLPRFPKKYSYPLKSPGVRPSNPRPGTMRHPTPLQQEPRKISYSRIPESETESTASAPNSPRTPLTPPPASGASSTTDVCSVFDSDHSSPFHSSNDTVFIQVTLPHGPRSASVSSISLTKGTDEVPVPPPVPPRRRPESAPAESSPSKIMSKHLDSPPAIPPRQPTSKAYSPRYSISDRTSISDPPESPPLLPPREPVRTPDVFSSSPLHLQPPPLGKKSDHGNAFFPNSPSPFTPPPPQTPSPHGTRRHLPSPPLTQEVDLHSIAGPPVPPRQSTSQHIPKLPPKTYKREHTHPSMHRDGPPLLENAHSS
Sequence of Phosphatidylinositol 4,5-bisphosphate 3-kinase catalytic subunit alpha isoform (P42336 whole entry, canonical isoform): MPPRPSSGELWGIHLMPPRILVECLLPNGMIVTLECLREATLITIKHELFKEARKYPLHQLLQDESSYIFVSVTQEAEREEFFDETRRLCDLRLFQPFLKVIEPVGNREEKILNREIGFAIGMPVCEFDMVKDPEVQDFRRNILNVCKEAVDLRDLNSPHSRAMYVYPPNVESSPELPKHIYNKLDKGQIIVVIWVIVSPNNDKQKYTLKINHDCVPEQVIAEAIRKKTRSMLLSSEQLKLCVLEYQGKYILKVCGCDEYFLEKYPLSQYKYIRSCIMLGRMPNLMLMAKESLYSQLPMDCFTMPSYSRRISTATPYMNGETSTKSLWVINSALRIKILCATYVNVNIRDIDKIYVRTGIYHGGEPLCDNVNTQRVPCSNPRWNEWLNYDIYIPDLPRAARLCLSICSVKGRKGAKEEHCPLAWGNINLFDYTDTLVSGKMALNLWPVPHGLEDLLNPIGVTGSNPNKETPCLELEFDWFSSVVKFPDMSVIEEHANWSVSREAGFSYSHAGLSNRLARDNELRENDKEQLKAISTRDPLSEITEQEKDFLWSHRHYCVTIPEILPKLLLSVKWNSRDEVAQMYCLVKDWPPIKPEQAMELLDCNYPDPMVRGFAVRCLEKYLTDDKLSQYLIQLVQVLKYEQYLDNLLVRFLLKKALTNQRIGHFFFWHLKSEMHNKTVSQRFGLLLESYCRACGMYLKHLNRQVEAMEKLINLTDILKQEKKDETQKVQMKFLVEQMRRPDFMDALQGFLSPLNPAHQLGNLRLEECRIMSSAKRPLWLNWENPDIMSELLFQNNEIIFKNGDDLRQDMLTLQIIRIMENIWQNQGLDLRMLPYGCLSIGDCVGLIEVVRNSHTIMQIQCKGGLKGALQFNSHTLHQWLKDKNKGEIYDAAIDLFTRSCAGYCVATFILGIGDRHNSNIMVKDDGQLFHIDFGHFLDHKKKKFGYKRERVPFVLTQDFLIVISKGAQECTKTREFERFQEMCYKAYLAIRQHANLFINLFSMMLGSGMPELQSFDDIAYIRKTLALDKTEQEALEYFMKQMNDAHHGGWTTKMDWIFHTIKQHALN

`COc1ncc(-c2ccc3ncnc(N4CCN(C(=O)/C=C/C(C)=O)C[C@@H]4C)c3c2)cc1NS(=O)(=O)c1ccc(F)cc1F` [US20250145589, Example 8]: the half-inhibitory concentration (IC50) in assay [1] was found to be 0.34 nM; in assay [2], 17.9 nM; in assay [3], 222 nM.

With `COc1ncc(-c2ccc3ncnc(N4CCC5(CN(C(=O)/C=C/C(C)=O)C5)C4)c3c2)cc1NS(=O)(=O)c1ccc(F)cc1F` [US20250145589, Example 13], the concentration for half-maximal inhibition (IC50) in assay [1] was 11.3 nM; in assay [2], 85.3 nM; in assay [3], 96.7 nM.

For the compound `C=C(F)C(=O)N1CCN(c2ncnc3ccc(-c4cnc(OC)c(N(C)S(=O)(=O)c5ccc(F)cc5F)c4)cc23)CC1` [US20250145589, Example 79], 903 nM corresponded to half-maximal inhibition in assay [2] (IC50). This lies in the sub-micromolar range.

Take `C=CS(=O)(=O)N1CCN(c2ncnc3ccc(-c4cnc(OC)c(NS(=O)(=O)c5ccc(F)cc5F)c4)cc23)CC1` [US20250145589, Example 207]: the IC50 in assay [1] is 3.2 nM. That is a single-digit nanomolar value.

On to `COc1ncc(-c2ccc3ncnc(N4CCN(C(=O)/C=C/C(C)=O)CC4)c3n2)cc1NS(=O)(=O)c1cnccc1C` [US20250145589, Example 223], for which the values for the half-inhibitory concentration (IC50) in assay [1] and in assay [3] were 1.4 nM and 210 nM, respectively.

For the compound `COc1ncc(-c2ccc3ncnc(N4CCN(C(=O)/C=C/C(C)=O)CC4)c3c2)cc1SS(=O)(=O)c1ccc(F)cc1F` [US20250145589, Example 246], the IC50 was 2.24 nM in assay [1], 13.8 nM in assay [2] and 159 nM in assay [3].
